Assays:
[1] = test system: sequelae of cerebellar hemorrhage (loss of motor control, language disorder) in a person
Procedure: A person was hospitalized after developing cerebellar hemorrhage about eight years ago, then was transferred to a rehabilitation hospital after discharge to receive rehabilitation, which they are continuing to this day.
The inhalation of molecular hydrogen was performed daily for the first 2 months, 1 to 1.5 hours in the morning and 1 to 1.5 hours in the evening, then daily for 1 month, 2 to 3 hours in the morning and 2 to 3 hours in the evening, and finally daily for 1 month, 1 hour in the morning and 1 hour in the evening.

[2] = normal temperature and pressure; also printed as 1.6 mg/L; cited from earlier work

For `[HH]` [molecular hydrogen], the “articulation (language disorder)” value ([1]; approximately one month after inhaling) was “improved”, the “time needed to walk a distance that previously took 20 minutes” value ([1]; approximately one month after inhaling, about 6 to 7.5 vol % H2) was “about 10 minutes” and the speech ([1]; approximately three months after inhalation) was “their speech became even more audible”. The “motor and daily-life abilities” value ([1]; approximately two months after inhalation) was “able to talk while walking, their stride during rehabilitation lengthened” and the “concentration at which hydrogen dissolves in water” value [2] was “about 1.6 ppm”.
